Biological target: MMP-3 (Homo sapiens, UniProt P08254)
Test: MMP-3 fluorescence-based inhibition assay

MMP-3, sequence (P08254 100-272 limits assumed): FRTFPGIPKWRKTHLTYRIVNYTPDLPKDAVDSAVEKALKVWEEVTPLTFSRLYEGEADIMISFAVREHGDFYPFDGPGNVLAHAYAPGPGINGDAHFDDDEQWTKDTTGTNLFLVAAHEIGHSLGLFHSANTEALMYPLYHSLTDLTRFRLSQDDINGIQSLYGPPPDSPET

| SMILES | inhibition at 50 µM (read-out: inhibition of MMP-3) | IC50 |
| --- | --- | --- |
| O=C(NCc1ccc(-c2ccccc2)cc1)c1cc(=O)c(O)co1 [CA1] | 25% | – |
| Cc1cc(=O)c(O)c(C(=O)Nc2ccc(-c3ccccc3)cc2)o1 [AM3] | – | 90 µM |
